The record followed here is patent publication US20260159486A1, “BENZO[H]QUINAZOLINE-4-AMINE DERIVATIVES FOR THE TREATMENT OF CANCER” (Redona Therapeutics, Inc., priority 2021, published 2026).

Test [1] deals with CAL-51 cells. Description: CAL-51 proliferation assay. The class given is cell-based. The following applies: Homo sapiens, CAL-51, 72 h, YO-PRO-1 Iodide readout. The procedure, abridged:
(§1)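 Cells seeded at 750 per well, treated next day for 72 h at 37 °C with 0.5% final DMSO. Cell number read by YO-PRO-1 fluorescence after lysis, normalized to DMSO (100%) and time-zero cells (0%). GI50 from 4-parameter logistic fit, maximum constrained to 100%.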

For test [2], the target named is T1, recombinant human CLK3 (Homo sapiens, UniProt P49761).
T1 construct: purchased Thermo Fisher Scientific PV3826
T1 sequence (P49761 whole entry): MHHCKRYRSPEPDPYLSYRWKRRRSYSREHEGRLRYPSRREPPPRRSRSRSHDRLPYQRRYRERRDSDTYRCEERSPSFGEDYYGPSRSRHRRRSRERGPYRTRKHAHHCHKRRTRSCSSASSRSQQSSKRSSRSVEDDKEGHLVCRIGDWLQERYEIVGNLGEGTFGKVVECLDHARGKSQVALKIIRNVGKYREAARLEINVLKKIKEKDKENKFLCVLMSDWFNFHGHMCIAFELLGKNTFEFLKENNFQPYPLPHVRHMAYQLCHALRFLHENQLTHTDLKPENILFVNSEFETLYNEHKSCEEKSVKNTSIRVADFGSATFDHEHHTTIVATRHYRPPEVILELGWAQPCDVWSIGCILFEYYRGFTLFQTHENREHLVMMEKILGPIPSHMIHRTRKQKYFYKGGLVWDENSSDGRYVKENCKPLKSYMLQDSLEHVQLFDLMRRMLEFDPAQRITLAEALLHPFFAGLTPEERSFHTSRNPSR
Briefly: CLK3 kinase assay (LANCE Ultra). The format is biochemical. The following applies: CLK3 0.5 nM, ATP 300 μM, 3 hours at 30° C. In outline: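 Recombinant human CLK3 (0.5 nM) with ULight-CREBtide (50 nM) and 300 μM ATP, 3 h at 30 °C in kinase buffer; EDTA stop, then Eu-anti-phospho-CREB antibody (2 nM, 1 h RT), TR-FRET read at 665/620 nm. Inhibition normalized to DMSO and no-ATP wells; IC50 from 4-parameter fit, ten 1:3 concentrations in duplicate.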

Test [3] has as its system MDA-MB-231 cells. Briefly: MDA-MB-231 proliferation assay. The class given is cell-based. Particulars: Homo sapiens, MDA-MB-231, 72 h, YO-PRO-1 Iodide readout. In outline: as §1

The term GI50 denotes the concentration giving 50% growth inhibition. What is called IC50 is the concentration that gives 50% inhibition. `COCCS(=O)(=O)N(C)c1c(O[C@H]2CC[C@H](N)CC2)ccc2c1CC(C)(C)c1c(N)ncnc1-2` [Example 64, N-[4-amino-8-(trans-4-aminocyclohexoxy)-5,5-dimethyl-6H-benzo[h]quinazolin-7-yl]-2-methoxy-N-methyl-ethanesulfonamide]: the GI50 in test [1] and in test [3] was below 100 nM in each case. Moreover, the IC50 in test [2] was below 30 nM.
`CN(C[C@@H]1CNC(=O)O1)c1c(Br)ccc2c1CC(C)(C)c1c(N)ncnc1-2` [Example 126, (5S)-5-[[(4-amino-8-bromo-5,5-dimethyl-6H-benzo[h]quinazolin-7-yl)-methyl-amino]methyl]oxazolidin-2-one]: the concentration for 50% growth inhibition (GI50) in test [1] and in test [3] was 100 to 2000 nM throughout. Also, in test [2], the IC50 lay within 30 to 100 nM.
With `Nc1ncnc2c1C1(CCCC1)Cc1c-2ccc(O[C@H]2CC[C@@H](N)CC2)c1NCCO` [Example 70, 2-[[4-amino-8-(cis-4-aminocyclohexoxy)spiro[6H-benzo[h]quinazoline-5,1′-cyclopentane]-7-yl]amino]ethanol], the GI50 in test [1] and in test [3] was 100 to 2000 nM each time. Further, in test [2], the 50% inhibitory concentration (IC50) was below 30 nM.
Consider `CNC(=O)CN(C)c1c(O[C@H]2CC[C@@H](N)CC2)ccc2c1CC(C)(C)c1c(N)ncnc1-2` [Example 26, 2-[[4-amino-8-(cis-4-aminocyclohexoxy)-5,5-dimethyl-6H-benzo[h]quinazolin-7-yl]-methyl-amino]-N-methyl-acetamide], for which the GI50 in test [1] and in test [3] was above 2000 nM in each case. The half-inhibitory concentration (IC50) in test [2] lay within 101 to 1000 nM.
For the compound `CC1(C)Cc2c(ccc3c2N(CCC#N)CCO3)-c2ncnc(N)c21` [Example 117, 3-(7-amino-6,6-dimethyl-3,5-dihydro-2H-quinazolino[7,8-f][1,4]benzoxazin-4-yl)propanenitrile], the GI50 in test [1] was below 100 nM; in test [3], 100 to 2000 nM. Besides, the 50% inhibitory concentration (IC50) in test [2] is 30 to 100 nM.
For `CN1CCN(c2ccc3c(c2N(C)CCC#N)CC(C)(C)c2c(N)ncnc2-3)CC1` [Example 118, 3-[[4-amino-5,5-dimethyl-8-(4-methylpiperazin-1-yl)-6H-benzo[h]quinazolin-7-yl]-methyl-amino]propanenitrile], in that order: below 100 nM, below 100 nM and below 30 nM.
Turning to `CC1(C)C(=O)c2c(ccc(O[C@H]3CC[C@H](N)CC3)c2N)-c2ncnc(N)c21` [Example 34, 4,7-diamino-8-(trans-4-aminocyclohexoxy)-5,5-dimethyl-benzo[h]quinazolin-6-one], the GI50 in test [1] and in test [3] was 100 to 2000 nM throughout. For the same compound, the IC50 in test [2] was 101 to 1000 nM.
In the case of `CC1(C)Cc2c(ccc(O[C@H]3CC[C@H](N4CCOCC4)CC3)c2NC[C@@H]2CNC(=O)O2)-c2ncnc(N)c21` [Example 131, (5R)-5-[[[4-amino-5,5-dimethyl-8-(trans-4-morpholinocyclohexoxy)-6H-benzo[h]quinazolin-7-yl]amino]methyl]oxazolidin-2-one], the GI50 in test [1] and in test [3] was 100 to 2000 nM in each case. Also, in test [2], the IC50 is below 30 nM.
Turning to `CN(Cc1cocn1)c1c(O[C@H]2CC[C@H](N)CC2)ccc2c1CC(C)(C)c1c(N)ncnc1-2` [Example 105, 8-(trans-4-aminocyclohexoxy)-N7,5,5-trimethyl-N7-(oxazol-4-ylmethyl)-6H-benzo[h]quinazoline-4,7-diamine], the GI50 in test [1] and in test [3] was 100 to 2000 nM throughout. In test [2], the IC50 is 101 to 1000 nM.
For `CC1(C)Cc2c(ccc(O[C@H]3CC[C@H](N)CC3)c2NC(=O)CO)-c2ncnc(N)c21` [Example 45, N-[4-amino-8-(trans-4-aminocyclohexoxy)-5,5-dimethyl-6H-benzo[h]quinazolin-7-yl]-2-hydroxy-acetamide], the GI50 in test [1] and in test [3] was above 2000 nM throughout. The IC50 in test [2] lay in the range of 101 to 1000 nM.
With `CC1(C)Cc2c(ccc(O[C@H]3CC[C@H](N)CC3)c2N2CCC(C(N)=O)C2)-c2ncnc(N)c21` (stereo partly drawn) [Example 77, 1-[4-amino-8-(trans-4-aminocyclohexoxy)-5,5-dimethyl-6H-benzo[h]quinazolin-7-yl]pyrrolidine-3-carboxamide], the results for the concentration for 50% growth inhibition (GI50) in test [1] and in test [3] were 100 to 2000 nM and above 2000 nM, respectively. For the same compound, in test [2], the half-inhibitory concentration (IC50) is below 30 nM.
`CN(Cc1c[nH]cn1)c1c(O[C@H]2CC[C@H](N)CC2)ccc2c1CC(C)(C)c1c(N)ncnc1-2` [Example 103, 8-(trans-4-aminocyclohexoxy)-N7-(1H-imidazol-4-ylmethyl)-N7,5,5-trimethyl-6H-benzo[h]quinazoline-4,7-diamine]: the 50% growth inhibitory concentration (GI50) in test [1] and in test [3] was 100 to 2000 nM throughout. Besides, in test [2], the IC50 lay within 30 to 100 nM.
Regarding `COc1ccc2c(c1N(CCC#N)Cc1nnc(C(C)F)o1)CC(C)(C)c1c(N)ncnc1-2` (stereo not drawn) [Example 124, 3-[(4-amino-8-methoxy-5,5-dimethyl-6H-benzo[h]quinazolin-7-yl)-[[5-(1-fluoroethyl)-1,3,4-oxadiazol-2-yl]methyl]amino]propanenitrile], the GI50 in test [1] and in test [3] was 100 to 2000 nM each time. Further, in test [2], the IC50 lay within 101 to 1000 nM.
With `CN(c1c(O[C@H]2CC[C@H](N)CC2)ccc2c1CC(C)(C)c1c(N)ncnc1-2)S(=O)(=O)CCC(N)=O` [Example 86, 3-[[4-amino-8-(trans-4-aminocyclohexoxy)-5,5-dimethyl-6H-benzo[h]quinazolin-7-yl]-methyl-sulfamoyl]propanamide], the concentration for 50% growth inhibition (GI50) in test [1] is 100 to 2000 nM; in test [3], above 2000 nM. Besides, the IC50 in test [2] was below 30 nM.
In the same order, the values of `CN(CCCC#N)c1c(O[C@H]2CC[C@H](N)CC2)ccc2c1CC(C)(C)c1c(N)ncnc1-2` [Example 58, 4-[[4-amino-8-(4-trans-aminocyclohexoxy)-5,5-dimethyl-6H-benzo[h]quinazolin-7-yl]-methyl-amino]butanenitrile] are below 100 nM, 100 to 2000 nM and below 30 nM.
Turning to `COc1ccc2c(c1NCC[C@@H]1CNC(=O)O1)CC(C)(C)c1c(N)ncnc1-2` [Example 89, (5R)-5-[2-[(4-amino-8-methoxy-5,5-dimethyl-6H-benzo[h]quinazolin-7-yl)amino]ethyl]oxazolidin-2-one], the GI50 in test [1] and in test [3] was 100 to 2000 nM each time. Also, the half-maximal inhibitory concentration (IC50) in test [2] fell in the range of 101 to 1000 nM.
Regarding `CC(CCO)c1c(O[C@H]2CC[C@H](N)CC2)ccc2c1CC(C)(C)c1c(N)ncnc1-2` (stereo partly drawn) [Example 92, 3-[4-amino-8-(trans-4-aminocyclohexoxy)-5,5-dimethyl-6H-benzo[h]quinazolin-7-yl]butan-1-ol], the GI50 in test [1] and in test [3] was below 100 nM each time. In test [2], the IC50 was below 30 nM.
On to `CC1(C)Cc2c(ccc(O[C@H]3CC[C@H](N)CC3)c2C(=O)NCC#N)-c2ncnc(N)c21` [Example 90, 4-amino-8-(trans-4-aminocyclohexoxy)-N-(cyanomethyl)-5,5-dimethyl-6H-benzo[h]quinazoline-7-carboxamide], for which the concentration for 50% growth inhibition (GI50) in test [1] and in test [3] was 100 to 2000 nM in each case. For the same compound, the concentration for half-maximal inhibition (IC50) in test [2] was below 30 nM.
`CN(CCN)c1c(O[C@H]2CC[C@H](N)CC2)ccc2c1CC(C)(C)c1c(N)ncnc1-2` [Example 80, 8-(trans-4-aminocyclohexoxy)-N7-(2-aminoethyl)-N7,5,5-trimethyl-6H-benzo[h]quinazoline-4,7-diamine]: the concentration for 50% growth inhibition (GI50) in test [1] and in test [3] was 100 to 2000 nM each time. For the same compound, the IC50 in test [2] is below 30 nM.
